From US8546451B2 (priority 2005, dated 2013)
Several values for one entry are separate records, joined by “and”; a condition that tells them apart may be missing. Equal values may be shown once. Marks after values point to notes of the source that are not given here.

Columns and labels:
[1] = target: mineralocorticoids receptor (MR) (Rattus norvegicus (Rat), UniProt P22199); assay: Cross-reactivity transcriptional activation assay, MR; format: cell-based; conditions: agonist and antagonist modes
Sequence of mineralocorticoids receptor (MR) (P22199 whole entry, canonical isoform): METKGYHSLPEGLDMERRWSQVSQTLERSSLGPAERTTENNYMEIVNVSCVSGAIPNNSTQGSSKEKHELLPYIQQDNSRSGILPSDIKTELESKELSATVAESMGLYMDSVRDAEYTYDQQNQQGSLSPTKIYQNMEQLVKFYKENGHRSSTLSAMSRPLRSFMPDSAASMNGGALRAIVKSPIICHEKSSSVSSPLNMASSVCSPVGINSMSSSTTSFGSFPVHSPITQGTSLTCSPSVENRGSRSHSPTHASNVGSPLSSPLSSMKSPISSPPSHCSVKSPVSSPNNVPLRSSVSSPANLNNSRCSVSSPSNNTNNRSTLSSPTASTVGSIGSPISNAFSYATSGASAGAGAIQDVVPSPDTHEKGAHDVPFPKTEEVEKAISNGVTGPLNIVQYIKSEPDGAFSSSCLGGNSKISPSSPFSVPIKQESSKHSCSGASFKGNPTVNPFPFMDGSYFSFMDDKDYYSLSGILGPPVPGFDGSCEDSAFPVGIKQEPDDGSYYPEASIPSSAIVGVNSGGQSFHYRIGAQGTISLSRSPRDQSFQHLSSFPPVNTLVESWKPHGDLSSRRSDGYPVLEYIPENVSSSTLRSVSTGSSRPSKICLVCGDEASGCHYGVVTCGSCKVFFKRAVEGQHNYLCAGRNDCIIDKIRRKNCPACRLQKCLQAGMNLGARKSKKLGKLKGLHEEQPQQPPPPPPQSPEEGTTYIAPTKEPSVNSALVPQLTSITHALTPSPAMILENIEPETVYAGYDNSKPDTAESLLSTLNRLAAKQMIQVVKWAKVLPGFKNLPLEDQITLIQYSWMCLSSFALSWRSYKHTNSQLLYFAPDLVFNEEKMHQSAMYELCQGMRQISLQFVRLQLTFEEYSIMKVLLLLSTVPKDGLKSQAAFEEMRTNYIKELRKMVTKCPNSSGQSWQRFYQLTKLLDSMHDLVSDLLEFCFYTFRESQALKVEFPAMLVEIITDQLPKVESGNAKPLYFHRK
From the text: (§1) Compound IV was screened for cross-reactivity against rat isoforms of glucocorticoid receptor (GR), mineralocorticoids receptor (MR), progesterone receptor (PR), androgen receptor (AR) and human isoforms of farnesoid X receptor (FXR), liver X receptor (LXR), peroxisome proliferator-activated receptors (PPAR-α and PPAR-γ), and retinoid X receptor (RXR-α) in both agonist and antagonist modes in transcriptional activation assays.

[2] = target: farnesoid X receptor (FXR) (Homo sapiens (Human), UniProt Q96RI1); assay: Cross-reactivity transcriptional activation assay, FXR; format: cell-based; conditions: agonist and antagonist modes
Sequence of farnesoid X receptor (FXR) (Q96RI1 whole entry): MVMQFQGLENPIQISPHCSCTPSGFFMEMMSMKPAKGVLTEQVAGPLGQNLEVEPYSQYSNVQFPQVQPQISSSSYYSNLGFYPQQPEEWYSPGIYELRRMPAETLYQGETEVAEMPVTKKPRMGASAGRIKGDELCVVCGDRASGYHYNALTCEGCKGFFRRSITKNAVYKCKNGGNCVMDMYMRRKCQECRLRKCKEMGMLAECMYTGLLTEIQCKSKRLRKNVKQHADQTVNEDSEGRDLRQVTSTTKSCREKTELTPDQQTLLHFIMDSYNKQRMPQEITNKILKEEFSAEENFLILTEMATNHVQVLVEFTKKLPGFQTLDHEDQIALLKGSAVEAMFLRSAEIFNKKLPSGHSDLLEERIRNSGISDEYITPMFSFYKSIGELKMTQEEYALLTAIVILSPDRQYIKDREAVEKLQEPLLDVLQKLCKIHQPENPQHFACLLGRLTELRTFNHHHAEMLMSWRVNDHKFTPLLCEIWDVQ
From the text: as §1

androgen receptor (AR) = androgen receptor (AR) (Rattus norvegicus (Rat), UniProt P15207); assay: DES versus Compound IV, AR crossreaction (FIG. 12B); format: cell-based
Sequence of androgen receptor (AR) (P15207 whole entry S389L): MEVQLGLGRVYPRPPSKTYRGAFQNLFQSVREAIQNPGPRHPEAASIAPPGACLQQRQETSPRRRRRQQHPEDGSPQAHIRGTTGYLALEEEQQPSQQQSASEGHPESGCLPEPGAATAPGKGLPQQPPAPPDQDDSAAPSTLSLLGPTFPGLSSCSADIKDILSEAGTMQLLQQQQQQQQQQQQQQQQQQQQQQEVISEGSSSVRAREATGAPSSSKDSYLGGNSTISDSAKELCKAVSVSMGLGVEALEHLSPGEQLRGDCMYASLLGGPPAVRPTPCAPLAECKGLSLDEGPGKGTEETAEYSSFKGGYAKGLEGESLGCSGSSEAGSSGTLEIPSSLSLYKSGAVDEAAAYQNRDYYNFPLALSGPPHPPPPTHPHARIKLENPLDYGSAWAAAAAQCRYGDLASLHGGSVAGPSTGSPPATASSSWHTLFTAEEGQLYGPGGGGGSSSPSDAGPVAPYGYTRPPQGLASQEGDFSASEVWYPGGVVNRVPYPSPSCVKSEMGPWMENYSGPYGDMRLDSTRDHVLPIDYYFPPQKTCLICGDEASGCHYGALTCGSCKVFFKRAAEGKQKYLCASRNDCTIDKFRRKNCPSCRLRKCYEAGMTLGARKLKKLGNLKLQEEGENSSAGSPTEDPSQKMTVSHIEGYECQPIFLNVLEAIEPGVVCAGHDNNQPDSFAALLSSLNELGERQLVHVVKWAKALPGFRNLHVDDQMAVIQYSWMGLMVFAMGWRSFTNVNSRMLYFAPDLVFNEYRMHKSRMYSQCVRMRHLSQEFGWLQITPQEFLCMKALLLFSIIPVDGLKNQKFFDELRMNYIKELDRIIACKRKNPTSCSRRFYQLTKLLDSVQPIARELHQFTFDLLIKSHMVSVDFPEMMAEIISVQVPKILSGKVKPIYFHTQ

[3] = tested on: LH, FSH, testosterone and androgen-dependent organ weights; assay: Suppression of LH and testosterone hormone levels in intact and ORX rats; format: in vivo, Sprague-Dawley rats; conditions: for Testosterone levels: LLOQ 0.08 ng/mL
[4] = tested on: rat bone, organ weight, and serum hormone parameters; assay: Bone preservation despite reduction of LH and testosterone in rats; format: in vivo; conditions: for Bone Mineral Density / FSH / LH / Levator Ani Muscle weight / Percent Bone Volume (BV/TV) / Prostate weight / Seminal Vesicles weight: Intact
Human 17β-HSD5 = Human 17β-HSD5 (Homo sapiens (Human), UniProt P42330); assay: 17β-HSD5 enzyme activity assay; format: biochemical; conditions: 14C androstenedione to testosterone, TLC (FIG. 3)
Sequence of Human 17β-HSD5 (P42330 whole entry): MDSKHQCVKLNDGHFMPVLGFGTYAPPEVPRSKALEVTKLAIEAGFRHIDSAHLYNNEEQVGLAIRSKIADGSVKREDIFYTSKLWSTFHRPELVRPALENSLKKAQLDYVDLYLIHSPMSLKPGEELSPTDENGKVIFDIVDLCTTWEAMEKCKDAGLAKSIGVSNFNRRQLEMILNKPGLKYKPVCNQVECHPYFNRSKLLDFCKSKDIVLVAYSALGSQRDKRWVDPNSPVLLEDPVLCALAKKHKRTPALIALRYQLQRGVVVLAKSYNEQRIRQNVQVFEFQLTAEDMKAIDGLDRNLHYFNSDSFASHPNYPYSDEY

CYP2B6 = assay: CYP450 induction in vitro, CYP2B6; format: in vitro ADME
CYP3A4 = assay: CYP450 induction in vitro, CYP3A4; format: in vitro ADME
CYP1A2 = CYP1A2 (Homo sapiens (Human), UniProt P05177); assay: CYP450 inhibition in vitro, CYP1A2; format: in vitro ADME; conditions: at concentrations <30 μM
Sequence of CYP1A2 (P05177 whole entry): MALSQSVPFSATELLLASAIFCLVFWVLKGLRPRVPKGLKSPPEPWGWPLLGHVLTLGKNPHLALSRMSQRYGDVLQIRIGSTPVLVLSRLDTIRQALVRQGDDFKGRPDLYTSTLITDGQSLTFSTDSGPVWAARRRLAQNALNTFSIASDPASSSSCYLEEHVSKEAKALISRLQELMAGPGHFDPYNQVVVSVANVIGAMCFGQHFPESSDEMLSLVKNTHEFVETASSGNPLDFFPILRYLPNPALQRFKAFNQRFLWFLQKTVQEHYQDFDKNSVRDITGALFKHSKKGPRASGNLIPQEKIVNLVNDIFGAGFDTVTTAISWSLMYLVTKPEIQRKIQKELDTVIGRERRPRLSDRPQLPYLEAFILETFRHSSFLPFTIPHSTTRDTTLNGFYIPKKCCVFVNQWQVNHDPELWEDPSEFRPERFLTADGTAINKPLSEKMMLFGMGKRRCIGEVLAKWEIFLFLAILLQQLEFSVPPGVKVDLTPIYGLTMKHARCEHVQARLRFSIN

CYP2C9 = CYP2C9 (Homo sapiens (Human), UniProt P11712); assay: CYP450 inhibition in vitro, CYP2C9; format: in vitro ADME
Sequence of CYP2C9 (P11712 whole entry): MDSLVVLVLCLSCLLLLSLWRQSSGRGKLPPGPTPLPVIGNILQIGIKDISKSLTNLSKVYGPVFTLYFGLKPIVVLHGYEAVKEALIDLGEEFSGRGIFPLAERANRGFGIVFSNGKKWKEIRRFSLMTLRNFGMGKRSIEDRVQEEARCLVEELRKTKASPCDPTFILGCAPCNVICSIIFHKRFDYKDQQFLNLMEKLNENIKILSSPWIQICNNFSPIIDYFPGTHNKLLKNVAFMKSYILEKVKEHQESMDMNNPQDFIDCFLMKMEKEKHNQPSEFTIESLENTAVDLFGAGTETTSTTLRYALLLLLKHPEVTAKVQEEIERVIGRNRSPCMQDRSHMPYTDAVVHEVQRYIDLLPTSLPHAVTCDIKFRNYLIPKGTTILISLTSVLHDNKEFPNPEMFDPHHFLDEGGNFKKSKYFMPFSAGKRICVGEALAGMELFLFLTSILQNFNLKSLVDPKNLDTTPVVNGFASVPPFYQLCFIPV

hERG channel = hERG channel (Homo sapiens (Human), UniProt Q12809); assay: hERG channel inhibition in vitro; format: cell-based
Sequence of hERG channel (Q12809 whole entry): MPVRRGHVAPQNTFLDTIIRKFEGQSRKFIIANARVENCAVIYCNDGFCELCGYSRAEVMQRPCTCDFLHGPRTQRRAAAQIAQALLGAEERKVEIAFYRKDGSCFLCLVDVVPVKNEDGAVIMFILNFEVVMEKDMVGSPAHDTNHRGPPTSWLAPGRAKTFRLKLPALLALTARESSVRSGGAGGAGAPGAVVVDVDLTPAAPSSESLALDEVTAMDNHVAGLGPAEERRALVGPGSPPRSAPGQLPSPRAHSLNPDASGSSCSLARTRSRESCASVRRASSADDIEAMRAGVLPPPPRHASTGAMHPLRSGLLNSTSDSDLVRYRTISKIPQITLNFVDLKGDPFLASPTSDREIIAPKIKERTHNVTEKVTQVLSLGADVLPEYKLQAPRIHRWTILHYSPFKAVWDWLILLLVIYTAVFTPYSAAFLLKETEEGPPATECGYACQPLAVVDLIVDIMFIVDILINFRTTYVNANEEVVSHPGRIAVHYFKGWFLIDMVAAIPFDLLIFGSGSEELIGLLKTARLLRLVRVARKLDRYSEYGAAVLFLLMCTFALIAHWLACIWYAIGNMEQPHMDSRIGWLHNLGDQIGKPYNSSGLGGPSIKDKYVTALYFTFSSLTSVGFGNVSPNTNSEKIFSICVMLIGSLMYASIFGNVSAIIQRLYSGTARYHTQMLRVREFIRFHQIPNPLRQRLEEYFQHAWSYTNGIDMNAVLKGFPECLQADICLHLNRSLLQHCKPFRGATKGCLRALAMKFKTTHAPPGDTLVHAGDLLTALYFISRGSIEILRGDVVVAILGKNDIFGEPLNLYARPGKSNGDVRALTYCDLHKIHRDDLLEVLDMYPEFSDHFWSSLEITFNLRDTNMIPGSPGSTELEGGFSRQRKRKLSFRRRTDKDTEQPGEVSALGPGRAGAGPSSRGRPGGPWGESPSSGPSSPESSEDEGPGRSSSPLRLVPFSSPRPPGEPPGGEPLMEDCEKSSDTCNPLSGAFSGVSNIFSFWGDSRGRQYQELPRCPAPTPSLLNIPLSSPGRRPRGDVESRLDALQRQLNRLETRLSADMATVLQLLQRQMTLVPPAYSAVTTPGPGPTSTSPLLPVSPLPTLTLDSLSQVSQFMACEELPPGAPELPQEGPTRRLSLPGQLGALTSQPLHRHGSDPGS
Method: Compound IV exerts little or no in vitro inhibitory effects (IC50≧300 μM) on the hERG channel.

[5] = tested on: isolated canine Purkinje fibers; assay: Action potential duration in isolated canine Purkinje fibers; conditions: 10 and 100 μM
telemetered dogs = assay: Hemodynamic and cardiac function in telemetered dogs; format: in vivo; conditions: any dose (up to 300 mg/kg)
[6] = Neuropharmacological and pulmonary safety pharmacology; conditions: in vivo
[7] = Renal function after single oral dose; format: in vivo
[8] = Intact, 0.3 mg/kg per day s.c., 14 days
[9] = Intact, 1 mg/kg per day s.c., 14 days
[10] = Intact, 3 mg/kg per day s.c., 14 days
[11] = Intact, 10 mg/kg per day s.c., 14 days
[12] = Intact, 30 mg/kg per day s.c., 14 days
[13] = ORX, 0.3 mg/kg per day s.c., 14 days
[14] = ORX, 1 mg/kg per day s.c., 14 days
[15] = ORX, 3 mg/kg per day s.c., 14 days
[16] = ORX, 10 mg/kg per day s.c., 14 days
[17] = ORX, 30 mg/kg per day s.c., 14 days

For `O=C(c1ccc(O)c(F)c1)N(c1ccc(O)cc1)c1ccc(F)cc1` [Compound IV, 3-fluoro-N-(4-fluorophenyl)-4-hydroxy-N-(4-hydroxyphenyl)benzamide], the “agonist or antagonist activity” value [1] was “did not display any agonist or antagonist activity”, the “agonist or antagonist activity” value [2] was “did not display any agonist or antagonist activity” and the “crossreaction with AR” value (androgen receptor (AR)) was “did not”. The FSH [3, 8] was 17.3±6.4 ng/mL and 17.3^b ng/mL, the LH [3, 8] was 0.863±0.384 ng/mL and 0.863^b ng/mL and the “Levator Ani Muscle weight” value [3, 8] was 86.9±10.0 % of Intact and 86.9^a,b % of Intact. The Prostate weight [3, 8] was 84.0±19.2 % of Intact and 84.0^b % of Intact, the “Seminal Vesicles weight” value [3, 8] was 76.2±7.8 % of Intact and 76.2^a,b % of Intact and the Testosterone levels [3, 8] was 2.6 ± 1.7 ng/mL. The FSH [3, 9] was 15.7±7.3 ng/mL and 15.7^b ng/mL, the LH [3, 9] was 0.704±0.530 ng/mL and 0.704^b ng/mL and the “Levator Ani Muscle weight” value [3, 9] was 82.1±12.1 % of Intact and 82.1^a,b % of Intact. The Prostate weight [3, 9] was 75.2±20.7 % of Intact and 75.2^b % of Intact, the “Seminal Vesicles weight” value [3, 9] was 66.3±27.2 % of Intact and 66.3^a,b % of Intact and the Testosterone levels [3, 9] was 1.6 ± 1.0 ng/mL. For the same compound, the FSH [3, 10] was 18.4±7.7 ng/mL and 18.4^b ng/mL, the LH [3, 10] was 0.395±0.302 ng/mL and 0.395^a,b ng/mL and the “Levator Ani Muscle weight” value [3, 10] was 65.2±4.4 % of Intact and 65.2^a % of Intact. For the same compound, the Prostate weight [3, 10] was 68.2±8.1 % of Intact and 68.2^a,b % of Intact, the “Seminal Vesicles weight” value [3, 10] was 51.8±28.5 % of Intact and 51.8^a,b % of Intact and the Testosterone levels [3, 10] was 0.7 ± 0.4 ng/mL. The FSH [3, 11] was 9.2±4.0 ng/mL and 9.25^a,b ng/mL, the LH [3, 11] was 0.226±0.165 ng/mL and 0.226^a,b ng/mL and the “Levator Ani Muscle weight” value [3, 11] was 57.8±11.2 % of Intact and 57.8^a % of Intact. For the same compound, the Prostate weight [3, 11] was 45.1±20.0 % of Intact and 45.1^a,b % of Intact, the “Seminal Vesicles weight” value [3, 11] was 19.1±7.0 % of Intact and 19.1^a % of Intact and the Testosterone levels [3, 11] was “BLOQ”. The FSH [3, 12] was 6.3±1.8 ng/mL and 6.25^a,b ng/mL, the LH [3, 12] was 0.236±0.176 ng/mL and 0.236^a,b ng/mL and the “Levator Ani Muscle weight” value [3, 12] was 58.1±4.7 % of Intact and 58.1^a % of Intact. For the same compound, the Prostate weight [3, 12] was 43.6±8.8 % of Intact and 43.6^a,b % of Intact, the “Seminal Vesicles weight” value [3, 12] was 17.9±3.3 % of Intact and 17.9^a % of Intact and the Testosterone levels [3, 12] was “BLOQ”. The FSH [3, 13] was 115±17 ng/mL and 116^a ng/mL, the LH [3, 13] was 15.4±2.9 ng/mL and 15.4^a ng/mL and the “Levator Ani Muscle weight” value [3, 13] was 54.5±6.6 % of Intact and 54.5^a % of Intact. The Prostate weight [3, 13] was 19.0±4.2 % of Intact and 19.0^a,b % of Intact, the “Seminal Vesicles weight” value [3, 13] was 12.2±1.3 % of Intact and 12.2^a % of Intact and the FSH [3, 14] was 114±22 ng/mL and 114^a ng/mL. For the same compound, the LH [3, 14] was 13.5±2.2 ng/mL and 13.5^a ng/mL, the “Levator Ani Muscle weight” value [3, 14] was 49.6±7.0 % of Intact and 49.6^a % of Intact and the Prostate weight [3, 14] was 17.4±3.4 % of Intact and 17.4^a % of Intact. The “Seminal Vesicles weight” value [3, 14] was 16.6±5.4 % of Intact and 16.6^a % of Intact, the FSH [3, 15] was 65.2±31.9 ng/mL and 65.2^a ng/mL and the LH [3, 15] was 6.5 ± 5.6 ng/mL and 6.5 ng/mL. For the same compound, the “Levator Ani Muscle weight” value [3, 15] was 53.6±10.0 % of Intact and 53.6^a % of Intact, the Prostate weight [3, 15] was 19.6±6.7 % of Intact and 19.6^a % of Intact and the “Seminal Vesicles weight” value [3, 15] was 16.5±4.8 % of Intact and 16.5^a % of Intact. For the same compound, the FSH [3, 16] was 27.6±8.2 ng/mL and 27.6^b ng/mL, the LH [3, 16] was 0.425±0.135 ng/mL and 0.425^a,b ng/mL and the “Levator Ani Muscle weight” value [3, 16] was 51.1±4.9 % of Intact and 51.1^a % of Intact. The Prostate weight [3, 16] was 22.9±5.4 % of Intact and 22.9^a,b % of Intact, the “Seminal Vesicles weight” value [3, 16] was 13.3±1.9 % of Intact and 13.3^a % of Intact and the FSH [3, 17] was 15.1±4.1 ng/mL and 15.1^b ng/mL. The LH [3, 17] was 0.368±0.119 ng/mL and 0.368^a,b ng/mL, the “Levator Ani Muscle weight” value [3, 17] was 49.2±4.2 % of Intact and 49.2^a,b % of Intact and the Prostate weight [3, 17] was 20.6±2.1 % of Intact and 20.6^a,b % of Intact. For the same compound, the “Seminal Vesicles weight” value [3, 17] was 12.9±2.1 % of Intact and 12.9^a % of Intact, the Testosterone levels ([3]; ORX, all treated groups (0.3-30 mg/kg per day)) was “BLOQ” and the “doses that significantly suppressed LH levels” value ([3]; intact and ORX animals, vs respective controls) was at least 10 mg/kg per day. The “daily doses with statistically significant LH reductions” value ([3]; intact animals) was at least 3 mg/kg, the “doses with significant FSH reductions” value ([3]; intact animals) was at least 10 mg/kg/day and the “doses with significant testosterone reductions” value ([3]; intact animals) was at least 3 mg/kg per day. The “suppression of serum testosterone” value ([3]; intact male rats, 3, 10 and 300 mg/kg, after 24 h, 72 h and 168 h (FIG. 9)) was “Rapid and potent suppression”, the “Bone Mineral Density” value ([4]; 1 mg/kg per day oral) was 0.273^b g/cm^3 and the FSH ([4]; 1 mg/kg per day oral) was 14.1^a,b ng/mL. For the same compound, the LH ([4]; 1 mg/kg per day oral) was 0.820^b ng/mL, the “Levator Ani Muscle weight” value ([4]; 1 mg/kg per day oral) was 80.0^a,b % of Intact and the “Percent Bone Volume (BV/TV)” value ([4]; 1 mg/kg per day oral) was 20.0^b %. For the same compound, the Prostate weight ([4]; 1 mg/kg per day oral) was 69.2^a,b % of Intact, the “Seminal Vesicles weight” value ([4]; 1 mg/kg per day oral) was 44.6^a,b % of Intact and the “Bone Mineral Density” value ([4]; 10 mg/kg per day oral) was 0.326^a,b g/cm^3. The FSH ([4]; 10 mg/kg per day oral) was 5.48^a,b ng/mL, the LH ([4]; 10 mg/kg per day oral) was 0.060^a,b ng/mL and the “Levator Ani Muscle weight” value ([4]; 10 mg/kg per day oral) was 58.1^a % of Intact. The “Percent Bone Volume (BV/TV)” value ([4]; 10 mg/kg per day oral) was 25.9^a,b %, the Prostate weight ([4]; 10 mg/kg per day oral) was 30.7^a,b % of Intact and the “Seminal Vesicles weight” value ([4]; 10 mg/kg per day oral) was 12.8^a,b % of Intact. The “Bone Mineral Density” value ([4]; 30 mg/kg per day oral) was 0.326^a,b g/cm^3, the FSH ([4]; 30 mg/kg per day oral) was 6.32^a,b ng/mL and the LH ([4]; 30 mg/kg per day oral) was 0.078^a,b ng/mL. For the same compound, the “Levator Ani Muscle weight” value ([4]; 30 mg/kg per day oral) was 56.1^a % of Intact, the “Percent Bone Volume (BV/TV)” value ([4]; 30 mg/kg per day oral) was 25.5^a,b % and the Prostate weight ([4]; 30 mg/kg per day oral) was 30.1^a,b % of Intact. For the same compound, the “Seminal Vesicles weight” value ([4]; 30 mg/kg per day oral) was 14.4^a,b % of Intact, the “dose levels with significant reduction of LH” value ([4]; intact animals) was at least 10 mg/kg per day and the “bone loss associated with LH suppression” value ([4]; intact male rats, orally administered) was “completely prevented the bone loss”. The “effect on 17β-HSD5 enzyme activity” value (Human 17β-HSD5) was “partial inhibitory effect”, the “induction of CYP2B6” value (CYP2B6) was “does not induce” and the “induction of CYP3A4” value (CYP3A4) was “does not induce”. For the same compound, the “inhibition of CYP1A2” value (CYP1A2) was “does not inhibit”, the Ki (CYP2C9) was 8 µM and the IC50 (hERG channel) was at least 300 µM. For the same compound, the APD50 [5] was “decreased”, the APD90 [5] was “decreased” and the “hemodynamic or cardiac function (blood pressure, heart rate, electrocardiogram morphology or QT intervals)” value (telemetered dogs) was “did not affect”. For the same compound, the “neuropharmacological or pulmonary effects” value [6] was “No neuropharmacological or pulmonary effects were observed”, the “effects on renal function” value ([7]; highest dose tested (100 mg/kg)) was “increased urine volume output and urinary excretion of potassium and chloride” and the “effects on renal function” value ([7]; single oral dose of up to 30 mg/kg) was “No significant effects”.
